Assay results from ChEMBL document CHEMBL1151562, “Stereoselective synthesis of novel analogues of 2-deoxy- and 2,3-dideoxynucleosides with potential antiviral activity” (Bioorg Med Chem Lett, 1994).
Calls of active or inactive are those of the source.

Columns and labels:
Type in all cases: functional, cell-based
[1] = Tested for cell count against human tumor Molt-4 cell line for antiproliferative activity; Inactive
[2] = tested on: Daudi; assay: Tested for antiproliferative activity against human tumor DAUDI EBV-immortalized B-lymphoid cells up to 72 hrs at concentration of 5 ug/ml; Inactive
[3] = tested on: MOLT-4; assay: Tested for antiproliferative activity against human tumor Molt-4 cell line up to 72 hrs at concentration of 2.5 ug/ml; Inactive
[4] = Tested for cell count against human tumor DAUDI EBV-immortalized B-lymphoid cells for antiproliferative activity; Inactive
[5] = tested on: MOLT-4; assay: Tested for antiproliferative activity against human tumor Molt-4 cell line up to 72 hrs at concentration of 5 ug/ml; Inactive
[6] = tested on: Daudi; assay: Tested for antiproliferative activity against human tumor DAUDI EBV-immortalized B-lymphoid cells up to 72 hrs at concentration of 1.25 ug/ml; Inactive
[7] = tested on: MT2; assay: Tested for antiproliferative activity against human tumor MT-2 T-lymphoid cells up to 72 hrs at concentration of 5 ug/ml; Inactive
[8] = tested on: HL-60; assay: Tested for antiproliferative activity against human tumor HL60 myeloid cells up to 72 hrs at concentration of 10 ug/ml; Inactive
[9] = tested on: MT2; assay: Tested for antiproliferative activity against human tumor MT-2 T-lymphoid cells up to 72 hrs at concentration of 2.5 ug/ml; Inactive
[10] = tested on: MOLT-4; assay: Tested for antiproliferative activity against human tumor Molt-4 cell line up to 72 hrs at concentration of 1.25 ug/ml; Inactive
[11] = tested on: MT2; assay: Tested for antiproliferative activity against human tumor MT-2 T-lymphoid cells up to 72 hrs at concentration of 1.25 ug/ml; Inactive
[12] = tested on: Daudi; assay: Tested for antiproliferative activity against human tumor DAUDI EBV-immortalized B-lymphoid cells up to 72 hrs at concentration of 10 ug/ml; Inactive
[13] = tested on: Daudi; assay: Tested for antiproliferative activity against human tumor DAUDI EBV-immortalized B-lymphoid cells up to 72 hrs at concentration of 2.5 ug/ml; Inactive
[14] = Tested for cell count against human tumor MT-2 T-lymphoid cells for antiproliferative activity; Inactive
[15] = tested on: MT2; assay: Tested for antiproliferative activity against human tumor MT-2 T-lymphoid cells up to 72 hrs at concentration of 10 ug/ml; Inactive
[16] = (§1) Tested for antiproliferative activity against human tumor U937 cell line up to 72 hrs at concentration of 5 ug/ml; Inactive
[17] = tested on: K562; assay: Tested for cell count against human tumor K562 erythromyeloid stem cells for antiproliferative activity; Inactive
[18] = tested on: Daudi; assay: (§2) Tested for antiproliferative activity against human tumor U937 cell line up to 72 hrs at concentration of 10 ug/ml; Inactive; details: U-937
[19] = Tested for antiproliferative activity against human tumor U937 cell line up to 72 hrs at concentration of 1.25 ug/ml; Inactive
[20] = Tested for cell count against human tumor HL60 myeloid cells for antiproliferative activity; Inactive
[21] = tested on: MOLT-4; assay: Tested for antiproliferative activity against human tumor Molt-4 cell line up to 72 hrs at concentration of 10 ug/ml; Inactive
[22] = Tested for antiproliferative activity against human tumor U937 cell line up to 72 hrs at concentration of 2.5 ug/ml; Inactive
[23] = tested on: HL-60; assay: as §1
[24] = as §2

Measured: Activity

CC1[C@@H](O)[C@@H](CO)O[C@H]1n1ccc(=O)[nH]c1=O (single isomer, unassigned; 5a)
not listed: [23] | [24]
inactive: all other assays above

C=CC[C@H]1C[C@@H](CO)OC1n1ccc(=O)[nH]c1=O (some centres undefined)
not listed: [8] | [18]
inactive: all other assays above
